# Data reported in US10550165B2, “Peptide for inducing regeneration of tissue and use thereof” (STEMRIM INC., priority 2011, dated 2020).
# Entries after “also recorded” stand apart in the source; their conditions may differ.
# B1: 2-62: human HMGB1 fragment, positions 2 to 62, produced in E. coli (protein, UniProt P09429 2-62, looked up, fragment)
# chain: GKGDPKKPRGKMSSYAFFVQTCREEHKKKHPDASVNFSEFSKKCSERWKTMSAKEKGKFED
# B2: 2-215: human HMGB1 positions 2 to 215 produced in E. coli, nearly the full length, positive control (protein, UniProt P09429 2-215, looked up, fragment)
# chain: GKGDPKKPRGKMSSYAFFVQTCREEHKKKHPDASVNFSEFSKKCSERWKTMSAKEKGKFEDMAKADKARYEREMKTYIPPKGETKKKFKDPNAPKRPPSAFFLFCSEYRPKIKGEHPGLSIGDVAKKLGEMWNNTAADDKQPYEKKAAKLKEKYEKDIAAYRAKGKPDAAKKGVVKAEKSKKKKEEEEDEEDEEDEEEEEDEEDEDEEEDDDDE
# B3: 45-215: peptide of positions 45 to 215 of HMGB1, produced using HEK293 (protein, UniProt P09429 45-215, looked up, fragment)
# chain: CSERWKTMSAKEKGKFEDMAKADKARYEREMKTYIPPKGETKKKFKDPNAPKRPPSAFFLFCSEYRPKIKGEHPGLSIGDVAKKLGEMWNNTAADDKQPYEKKAAKLKEKYEKDIAAYRAKGKPDAAKKGVVKAEKSKKKKEEEEDEEDEEDEEEEEDEEDEDEEEDDDDE
# B4: 63-215: peptide of positions 63 to 215 of HMGB1, produced using HEK293 (protein, UniProt P63158 63-215, looked up, fragment)
# chain: MAKADKARYEREMKTYIPPKGETKKKFKDPNAPKRPPSAFFLFCSEYRPKIKGEHPGLSIGDVAKKLGEMWNNTAADDKQPYEKKAAKLKEKYEKDIAAYRAKGKPDAAKKGVVKAEKSKKKKEEEDDEEDEEDEEEEEEEEDEDEEEDDDDE
# B5: 1-62: peptide comprising the amino acid sequence of positions 1 to 62, produced using HEK293 (protein, UniProt P63158 1-62, looked up, fragment)
# chain: MGKGDPKKPRGKMSSYAFFVQTCREEHKKKHPDASVNFSEFSKKCSERWKTMSAKEKGKFED
# B6: 85-169: peptide of positions 85 to 169 of mouse HMGB1, produced using HEK293 (protein, UniProt P63158 85-169, looked up, fragment)
# chain: TKKKFKDPNAPKRPPSAFFLFCSEYRPKIKGEHPGLSIGDVAKKLGEMWNNTAADDKQPYEKKAAKLKEKYEKDIAAYRAKGKPD
# B7: 1-84: peptide of positions 1 to 84 of mouse HMGB1, produced using HEK293 (protein, UniProt P63158 1-84, looked up, fragment)
# chain: MGKGDPKKPRGKMSSYAFFVQTCREEHKKKHPDASVNFSEFSKKCSERWKTMSAKEKGKFEDMAKADKARYEREMKTYIPPKGE
# System: mouse bone marrow mesenchymal stem cell line (MSC-1 cells), PDGFRα-positive
# Test: Migration assay (Boyden / 48-well chemotaxis chamber) on bone marrow mesenchymal stem cell line MSC-1
# Format: cell-based
# Settings: human HMGB1 fragments produced in E. coli, 2 μM, FIG. 18B
# Protocol: Cells of a mouse bone marrow mesenchymal stem cell line (MSC-1 cells, established by Tamai et al. of Osaka University (PDGFRα-positive cells in bone marrow are mobilized by high mobility group box 1 (HMGB1) to regenerate injured epithelia. (Tamai et al., Proc Natl Acad Sci USA. Apr. 4, 2011))) were detached from dishes using trypsin, and collected by centrifugation at 1200 rpm and 4° C. for 10 minutes. The resulting pellet was loosened and suspended at a cell concentration of 2.0×10^6 to 3.0×10^6 cells/ml by adding Dulbecco's Modified Eagle Medium (D-MEM) containing 10% fetal bovine serum (FBS). The recombinant protein and peptides produced in HEK293 were diluted with D-MEM containing 10% FBS. The negative control used was phosphate buffered saline (PBS). An acrylic Boyden chamber was used; cells of the mouse bone marrow mesenchymal stem cell line prepared at a cell concentration of 3×10^6 cells/ml were placed in its upper layer, while a diluted protein or peptide is added to the bottom layer. More specifically, a 28 μl aliquot of a protein or peptide solution was added to each well of the bottom plate of a 48-well chemotaxis chamber (NEURO PROBE 48WELL CHEMOTAXIS CHAMBER), and a polycarbonate membrane with 8 μm pores (Neuro Probe, Inc, Cat: 866-417-0014) was placed on the bottom plate. Then, an upper plate was placed on the membrane and screwed tightly. 50 μl of cells of the mouse bone marrow mesenchymal stem cell line after concentration adjustment were added to the upper plate wells. The chamber was placed in an incubator under 5% CO2 at 37° C. After four hours, the membrane was removed from the chamber and stained with Diff-Quik (Sysmex, Cat: 16920) to detect cells that migrated through membrane pores to the lower compartment.
# The peptides listed below were custom synthesized using the solid phase method by Medical & Biological Laboratories (MBL). The peptides were synthesized based on the mouse HMGB1 sequence (SEQ ID NO: 3). Synthetic peptides described in subsequent Examples were also prepared based on the mouse HMGB1 sequence. • A synthetic peptide consisting of the amino acid sequence from positions 1 to 10 of HMGB1 (1-10); • a synthetic peptide consisting of the amino acid sequence from positions 1 to 34 of HMGB1 (1-34); • a synthetic peptide consisting of the amino acid sequence from positions 37 to 62 of HMGB1 (37-62); • a synthetic peptide consisting of the amino acid sequence from positions 27 to 62 of HMGB1 (27-62); • a synthetic peptide consisting of the amino acid sequence from positions 56 to 72 of HMGB1 (56-72); • a synthetic peptide consisting of the amino acid sequence from positions 11 to 20 of HMGB1 (11-20); • a synthetic peptide consisting of the amino acid sequence from positions 11 to 25 of HMGB1 (11-25); • a synthetic peptide consisting of the amino acid sequence from positions 11 to 30 of HMGB1 (11-30); • a synthetic peptide consisting of the amino acid sequence from positions 11 to 34 of HMGB1 (11-34); • a synthetic peptide consisting of the amino acid sequence from positions 11 to 44 of HMGB1 (11-44); • a synthetic peptide consisting of the amino acid sequence from positions 17 to 44 of HMGB1 (17-44); • a synthetic peptide consisting of the amino acid sequence from positions 1 to 25 of HMGB1 (1-25); and the whole mouse HMGB1 produced in HEK293 (1-215(HEK)) as a positive control were adjusted to 100 μg/ml and placed in the lower layer of a chemotaxis chamber to assess the migration-promoting activity on bone marrow mesenchymal stem cell line (MSC-1). Results
# As positive controls, centrifuged supernatant of the skin of a one-day-old mouse (one individual) incubated in PBS at 4° C. for 12 hours, and the whole mouse HMGB1 (HMGB1(HEK_1-215)) produced in HEK293 were used. […]
row,Molecule,migration-promoting activity
1,B1,showed migration-promoting activity on bone marrow mesenchymal stem cells
2,B2,showed migration-promoting activity on bone marrow mesenchymal stem cells

# Same assay, conditions: peptides produced using HEK293, 5, 15 and 25 μg/ml, FIG. 3
row,Molecule,migration-promoting activity
1,B3,exhibited migration-promoting activity in a concentration-dependent manner; also recorded: stronger as compared to 63-215
2,B4,exhibited migration-promoting activity in a concentration-dependent manner

# Same assay, conditions: peptides produced using HEK293, concentration not stated
row,Molecule,activity of promoting the migration of MSC-1
1,"1-42: peptide comprising the amino acid sequence of positions 1 to 42, produced using HEK293 (MGKGDPKKPRGKMSSYAFFVQTCREEHKKKHPDASVNFSEFS; UniProt P63158 1-42, looked up, fragment)",showed the activity of promoting the migration of bone marrow mesenchymal stem line MSC-1
2,"1-51: peptide comprising the amino acid sequence of positions 1 to 51, produced using HEK293 (MGKGDPKKPRGKMSSYAFFVQTCREEHKKKHPDASVNFSEFSKKCSERWKT; UniProt P09429 1-51, looked up, fragment)",showed the activity of promoting the migration of bone marrow mesenchymal stem line MSC-1
3,"1-47: peptide comprising the amino acid sequence of positions 1 to 47, produced using HEK293 (MGKGDPKKPRGKMSSYAFFVQTCREEHKKKHPDASVNFSEFSKKCSE; UniProt P63158 1-47, looked up, fragment)",showed the activity of promoting the migration of bone marrow mesenchymal stem line MSC-1
4,"1-45: peptide comprising the amino acid sequence of positions 1 to 45, produced using HEK293 (MGKGDPKKPRGKMSSYAFFVQTCREEHKKKHPDASVNFSEFSKKC; UniProt P63158 1-45, looked up, fragment)",showed the activity of promoting the migration of bone marrow mesenchymal stem line MSC-1
5,B5,showed the activity of promoting the migration of bone marrow mesenchymal stem line MSC-1

# Same assay, conditions: protein and peptides produced using HEK293 (mouse HMGB1), 50 μg/ml, 4 h, FIG. 2A
row,Molecule,migration-promoting activity
1,B6,did not show detectable migration-promoting activity
2,B7,showed migration-promoting activity

# Same assay, conditions: synthetic peptides, 5 μM, FIGS. 8A and 8B
row,Molecule,migration-promoting activity
1,"(11-27): synthetic peptide consisting of the amino acid sequence from positions 11 to 27 of HMGB1 (GKMSSYAFFVQTCREEH; UniProt P09429 11-27, looked up, fragment)",strong migration-promoting activity
2,"(14-25): synthetic peptide consisting of the amino acid sequence from positions 14 to 25 of HMGB1 (SSYAFFVQTCRE; UniProt P09429 14-25, looked up, fragment)",weak activity
3,"(12-25): synthetic peptide consisting of the amino acid sequence from positions 12 to 25 of HMGB1 (KMSSYAFFVQTCRE; UniProt P09429 12-25, looked up, fragment)",weak activity
4,"(17-30): synthetic peptide consisting of the amino acid sequence from positions 17 to 30 of HMGB1 (AFFVQTCREEHKKK; UniProt P09429 17-30, looked up, fragment)",weak activity

# Same assay, conditions: synthetic peptides, 100 μg/ml, positive control 1-215(HEK), FIG. 7
row,Molecule,migration-promoting activity
1,"(1-25): synthetic peptide consisting of the amino acid sequence from positions 1 to 25 of HMGB1 (MGKGDPKKPRGKMSSYAFFVQTCRE; UniProt P09429 1-25, looked up, fragment)",found to have the activity
2,"(11-30): synthetic peptide consisting of the amino acid sequence from positions 11 to 30 of HMGB1 (GKMSSYAFFVQTCREEHKKK; UniProt P09429 11-30, looked up, fragment)",activity comparable to or higher than that of the positive control
3,"(11-44): synthetic peptide consisting of the amino acid sequence from positions 11 to 44 of HMGB1 (GKMSSYAFFVQTCREEHKKKHPDASVNFSEFSKK; UniProt P09429 11-44, looked up, fragment)",activity comparable to or higher than that of the positive control
